Experiments:
Type in all cases: cell-based
IL-6 (THP-1 cells) = experiment: IL-6 inhibition in LPS-stimulated THP-1 monocytes (HTRF); details: Homo sapiens; for EC50: IL-6, THP-1 cells, LPS 500 ng/mL, 22 hours; for inhibition at 10 µM: THP-1, read-out: percent inhibition at 10 μM
In short: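 THP-1 cells kept 24 h in 1% FBS medium, exposed to compound 2 h at 37 °C, then stimulated with 500 ng/mL LPS for 22 h. Secreted IL-6 quantified by HTRF (665/620 nm ratio), duplicates. Values normalized to DMSO; EC50 by four-parameter variable-slope regression.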

SW480 colon cancer cells = experiment: Cell viability assay (CellTiter-Blue) in SW480 colon cancer cells; details: Homo sapiens; for EC50: 96 h, SW480 cell viability, four days; for inhibition at 10 µM: SW480, read-out: percent inhibition at 10 μM
In short: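 Fluorescence from resazurin reduced to resorufin by metabolically active cells was the read-out, taken after ~3 h with CellTiter-Blue.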

[1] = test system: primary human fibroblasts derived from IPF patients (LL29 cells) treated with TGF-β1; experiment: Inhibition of the fibrotic process: αSMA staining in TGF-β1 treated LL29 fibroblasts; details: Fibroblast, 96 h, % αSMA positive LL29 cells, TGF-β1 20 ng/mL, 4 days
In short: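 Read-out after 4-day incubation: αSMA staining with 1 μM SYTOX green nuclear counterstain (30 min, room temperature). Cells were LL29 primary fibroblasts from IPF patients, in 1% FBS F12, exposed to TGF-β1 with test compound, referenced to TGF-β1/DMSO control wells.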

[2] = test system: Wnt activity (Sp5-Luc reporter, SW480 colon carcinoma cells); experiment: Screening assay for Wnt activity: Sp5-Luc reporter gene assay in SW480 colon carcinoma cells; details: Homo sapiens; for EC50: Sp5-Luc reporter, SW480 cells, overnight incubation; for inhibition at 10 µM: SW480, read-out: percent inhibition at 10 μM
In short: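 SW480 colon carcinoma cells stably carrying Sp5 promoter (eight TCF/LEF sites)-driven firefly luciferase, plated at 4,000 cells/well in 1% FBS medium and incubated overnight at 37° C. Luminescence normalised to DMSO-only cells; EC50 from four-parameter variable-slope nonlinear regression.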

[3] = test system: primary human mesenchymal stem cells (hMSCs); experiment: Induction of chondrogenesis in hMSCs (chondrogenic nodules, Rhodamine B/Nile Red); details: 6 days; for EC50: concentration required to induce 50% levels of chondrogenesis vs TGF-β3, read-out: Conc (nM) of 50% TGF-β3 activity; for Emax: relative to TGF-β3 (10 ng/mL) positive control, read-out: Max. Activity as % TGF-β3 activity
Text: Representative compounds were screened using primary human mesenchymal stem cells (hMSCs) to determine their ability to induce chondrogenesis (process by which cartilage is developed).
Human Mesenchymal Stem Cell Culture: Primary human mesenchymal stem cells (hMSCs) were purchased from Lonza (Walkersville, Md.) and expanded in Mesenchymal Stem Cell Growth Media (Lonza). Cells between passage 3 and 6 were used for the experiments.
Number of nodules in each well was normalized to the average of 3 DMSO treated wells on the same plate using Excel (Microsoft Inc.). The normalized averages (fold change over DMSO) of 3 replicate wells for each compound concentration were calculated. Due to solubility limitations of some of the compounds, curve fitting was incomplete leading to inaccurate EC50 determinations.
Using TGF-β3 as a positive control, the concentration of representative compounds required to induce 50% levels of chondrogenesis is reported. In addition, the maximum activity of each compound and the respective dose that each compound reached maximum chondrogenesis activity is reported.

Row | Structure (SMILES) | EC50 (IL-6 (THP-1 cells)) | EC50 (SW480 colon cancer cells) | EC50 [2] | EC50 [3] | EC50 [1] | Emax [3] | inhibition at 10 µM (SW480 colon cancer cells) | inhibition at 10 µM (IL-6 (THP-1 cells)) | inhibition at 10 µM [2]
1 | CN1CCN(c2nccc3[nH]c(-c4n[nH]c5cnc(-c6cncc(CN7CCC(F)(F)C7)c6)cc45)cc23)CC1 [Compound 250, 5-(5-((3,3-Difluoropyrrolidin-1-yl)methyl)pyridin-3-yl)-3-(4-(4-methylpiperazin-1-yl)-1H-pyrrolo[3,2-c]pyridin-2-yl)-1H-pyrazolo[3,4-c]pyridine] | 323 nM | 2370 nM | 1100 nM | 10 nM | 641 nM | 76% |  |  | 
2 | Fc1ccccc1-c1nccc2[nH]c(-c3n[nH]c4cnc(-c5cncnc5)cc34)cc12 [Compound 83, 3-(4-(2-Fluorophenyl)-1H-pyrrolo[3,2-c]pyridin-2-yl)-5-(pyrimidin-5-yl)-1H-pyrazolo[3,4-c]pyridine] | > 10000 nM | 1600 nM | 2140 nM |  | 1040 nM | 47% |  | 27.3% | 
3 | Fc1ccccc1-c1nccc2[nH]c(-c3n[nH]c4cnc(-c5cn[nH]c5)cc34)cc12 [Compound 539, 3-(4-(2-Fluorophenyl)-1H-pyrrolo[3,2-c]pyridin-2-yl)-5-(1H-pyrazol-4-yl)-1H-pyrazolo[3,4-c]pyridine] | 393 nM | > 10000 nM | 30 nM | 10 nM | 76 nM | 89% | 44.4% |  | 
4 | CN(C)c1cncc(-c2cc3c(-c4cc5cnccc5[nH]4)n[nH]c3cn2)c1 [Compound 259, 5-(3-(1H-Pyrrolo[3,2-c]pyridin-2-yl)-1H-pyrazolo[3,4-c]pyridin-5-yl)-N,N-dimethylpyridin-3-amine] | 2220 nM | 1600 nM | 3060 nM | 300 nM | 401 nM | 101% |  |  | 
5 | CC(C)CC(=O)Nc1cncc(-c2cc3c(-c4cc5c(-c6cccs6)nccc5[nH]4)n[nH]c3cn2)c1 [Compound 338, 3-Methyl-N-(5-(3-(4-(thiophen-2-yl)-1H-pyrrolo[3,2-c]pyridin-2-yl)-1H-pyrazolo[3,4-c]pyridin-5-yl)pyridin-3-yl)butanamide] | 449 nM | 440 nM | 572 nM | 10 nM | 155 nM | 81% |  |  | 
6 | CC(C)C(=O)Nc1cncc(-c2cc3c(-c4cc5cnccc5[nH]4)n[nH]c3cn2)c1 [Compound 261, N-(5-(3-(1H-Pyrrolo[3,2-c]pyridin-2-yl)-1H-pyrazolo[3,4-c]pyridin-5-yl)pyridin-3-yl)isobutyramide] | 623 nM | 2250 nM | 399 nM | 30 nM | 472 nM | 61% |  |  | 
7 | CC(C)C(=O)Nc1cncc(-c2cc3c(-c4cc5c(-c6ccncc6)nccc5[nH]4)n[nH]c3cn2)c1 [Compound 121, N-(5-(3-(4-(Pyridin-4-yl)-1H-pyrrolo[3,2-c]pyridin-2-yl)-1H-pyrazolo[3,4-c]pyridin-5-yl)pyridin-3-yl)isobutyramide] | > 10000 nM | > 10000 nM | > 10000 nM |  | 9820 nM | 32% | 19.7% | 0% | 6.2%

Second part, led by results:

Row | EC50 (IL-6 (THP-1 cells)) | EC50 (SW480 colon cancer cells) | EC50 [2] | EC50 [3] | Structure (SMILES) | EC50 [1] | Emax [3] | inhibition at 10 µM (SW480 colon cancer cells) | inhibition at 10 µM (IL-6 (THP-1 cells)) | inhibition at 10 µM [2]
8 | 4600 nM | > 10000 nM | 3420 nM | 10 nM | CN1CCN(c2nccc3[nH]c(-c4n[nH]c5cnc(-c6cncc(NC(=O)C7CCCCC7)c6)cc45)cc23)CC1 [Compound 247, N-(5-(3-(4-(4-Methylpiperazin-1-yl)-1H-pyrrolo[3,2-c]pyridin-2-yl)-1H-pyrazolo[3,4-c]pyridin-5-yl)pyridin-3-yl)cyclohexanecarboxamide] | 2990 nM | 61% | 40.3% |  | 
9 | 119 nM | 940 nM | 224 nM | 10 nM | Nc1cncc(-c2cc3c(-c4cc5c(-c6ccccc6F)nccc5[nH]4)n[nH]c3cn2)c1 [Compound 59, 5-(3-(4-(2-Fluorophenyl)-1H-pyrrolo[3,2-c]pyridin-2-yl)-1H-pyrazolo[3,4-c]pyridin-5-yl)pyridin-3-amine] | 5400 nM | 117% |  |  | 
10 | > 10000 nM | > 10000 nM | > 10000 nM |  | CN1CCN(c2nccc3[nH]c(-c4n[nH]c5cnc(-c6cncc(N)c6)cc45)cc23)CC1 [Compound 227, 5-(3-(4-(4-Methylpiperazin-1-yl)-1H-pyrrolo[3,2-c]pyridin-2-yl)-1H-pyrazolo[3,4-c]pyridin-5-yl)pyridin-3-amine] | 5410 nM | 50% | 20.5% | 39.5% | 46.2%
11 | 489 nM | 716 nM | 595 nM |  | Cc1ccncc1-c1cc2c(-c3cc4c(-c5ccc(F)cc5)nccc4[nH]3)n[nH]c2cn1 [Compound 33, 3-(4-(4-Fluorophenyl)-1H-pyrrolo[3,2-c]pyridin-2-yl)-5-(4-methylpyridin-3-yl)-1H-pyrazolo[3,4-c]pyridine] | 266 nM | 24% |  |  | 
12 | > 10000 nM | 611 nM | 1490 nM | 300 nM | CN(C)c1cncc(-c2cc3c(-c4cc5c(-c6cccs6)nccc5[nH]4)n[nH]c3cn2)c1 [Compound 343, N,N-Dimethyl-5-(3-(4-(thiophen-2-yl)-1H-pyrrolo[3,2-c]pyridin-2-yl)-1H-pyrazolo[3,4-c]pyridin-5-yl)pyridin-3-amine] | 694 nM | 51% |  | 0% | 
13 | 468 nM | 1100 nM | 291 nM | 10 nM | Fc1ccc(-c2nccc3[nH]c(-c4n[nH]c5cnc(-c6cncc(CN7CCC(F)(F)C7)c6)cc45)cc23)cc1 [Compound 54, 5-(5-((3,3-Difluoropyrrolidin-1-yl)methyl)pyridin-3-yl)-3-(4-(4-fluorophenyl)-1H-pyrrolo[3,2-c]pyridin-2-yl)-1H-pyrazolo[3,4-c]pyridine] | 28 nM | 61% |  |  | 

Reference: patent US10206908B2, “3-(1H-pyrrolo[3,2-C]pyridin-2-YL)-1H-pyrazolo[3,4-C]pyridines and therapeutic uses thereof” (Samumed, LLC, priority 2015, dated 2019)
